Legend:
HLA B*0801 [1] = target: T1, HLA B*0801 (Homo sapiens, UniProt P01889, A93T/A95T/D138N/E176V/E187T/K202T/Q94N/R180D/S35A/V36M/Y33D/Y91F); assay: Multi-parametric analysis iScore; assay type: binding; parameters: scale not given here; details: index integrating t1/2 and ED50
T1 construct: purchased
Method: (§1) Multi-parametric analysis was performed to integrate the half-life (t½) and ED50 parameters in an index (iScore). The iScore (Table 13) reflects the capability of a peptide to reconstitute with MHC molecules in a stable complex, defining its overall level of binding.

HLA A*1101 [2] = target: T2, HLA A*1101 (Homo sapiens, UniProt P04439, A114D/D185E/E176A/F33Y/L180Q/S129P/T187R); assay: Multi-parametric analysis iScore; assay type: binding; parameters: scale not given here; details: index integrating t1/2 and ED50
T2 construct: purchased
Method: as §1

HLA A*0201 [3] = target: T3, HLA A*0201 (Homo sapiens, UniProt P04439, D140Y/D185E/D98H/E176V/E277Q/G131W/G231S/I119V/I121R/I166T/I218V/L300P/L318F/N151K/N90K/P208A/P217A/Q86G/Q94H/R138H/R169H/T345S); assay: Multi-parametric analysis iScore; assay type: binding; parameters: scale not given here; details: index integrating t1/2 and ED50
Method: as §1

HLA A*0101 [4] = target: T4, HLA A*0101 (Homo sapiens, UniProt P04439, A114D/A174V/A182V/D101N/D185E/E176A/E190D/L180R/Q94H/R68K/S129P/T187R/V100A/V91M/W191G); assay: Multi-parametric analysis iScore; assay type: binding; parameters: scale not given here; details: index integrating t1/2 and ED50
T4 construct: purchased
Method: as §1

HLA A*0301 [5] = target: T5, HLA A*0301 (Homo sapiens, UniProt P04439); assay: Multi-parametric analysis iScore; assay type: binding; parameters: scale not given here; details: index integrating t1/2 and ED50
T5 construct: purchased
Method: as §1

HLA B*0702 [6] = target: T6, HLA B*0702 (Homo sapiens, UniProt P01889); assay: Multi-parametric analysis iScore; assay type: binding; parameters: scale not given here; details: index integrating t1/2 and ED50
T6 construct: purchased
Method: as §1

HLA A*2402 [7] = target: T7, HLA A*2402 (Homo sapiens, UniProt P04439, D101N/D140Y/D185E/E176V/E190D/F33S/G103R/G107R/I119L/I121M/I306V/K335N/L105A/L180Q/L300P/N151K/N90K/Q86E/Q94H/R106L/R138H/R89G/T104I/T345S/V100E/W191G/Y123F); assay: Multi-parametric analysis iScore; assay type: binding; parameters: scale not given here; details: index integrating t1/2 and ED50
Method: as §1

HLA B*1501 [8] = target: T8, HLA B*1501 (Homo sapiens, UniProt P01889, A329T/A93T/A95T/C349S/D201E/D98Y/E187L/E204Q/E69M/E70A/K202T/N87E/Q94N/R155S/R180W/S121R/S35A/S48A/V306I/V36M/Y140S/Y91S); assay: Multi-parametric analysis iScore; assay type: binding; parameters: scale not given here; details: index integrating t1/2 and ED50
T8 construct: purchased
Method: as §1

HLA B*0801 [9] = target: T1, HLA B*0801; assay: ITOPIA peptide binding assay; details: 1.11×10^−4M of peptide
Method: (§2) Peptide binding, off-rate and affinity were measured according to the protocols described in the ITOPIA Epitope Discovery System Customer Guide. To conduct the experiments, ninety-six (96) micro-titer plates coated with MHC molecules representing the HLA alleles listed in Table 9 were used to identify candidate peptides. Determinations were performed in duplicate using an ELISA plate reader. The peptide binding assay used measures the ability of individual peptides to bind to the HLA molecules under standardized optimal binding conditions. The assay was performed for all the test peptides across the selected HLA alleles. The test peptides identified as “binders” were characterized further in terms of affinity and dissociation experiments. The off-rate assay used evaluates the dissociation of previously bound peptide at defined time points (expressed as the t1/2 value). The affinity assay used measures the relative binding affinities for the MHC molecules determined by incubating candidate peptides identified in the initial peptide binding assay at increasing concentrations (expressed as quantity of peptide needed to achieve 50% binding or ED50 value).
(§3) The binding of the test peptides (Table 8) to the HLA molecules (Table 9) was performed at a concentration of 1.11×10^−4M of peptide under optimal, standardized test conditions. A control peptide was run in parallel on the same plate and at the same concentration as the test peptides. […] The level of binding is expressed as a percent of positive control peptide binding for each allele.

HLA A*1101 [10] = target: T2, HLA A*1101; assay: ITOPIA peptide binding assay; details: 1.11×10^−4M of peptide
Method: as §2, §3

HLA A*0201 [11] = target: T3, HLA A*0201; assay: ITOPIA peptide binding assay; details: 1.11×10^−4M of peptide
Method: as §2, §3

HLA A*0101 [12] = target: T4, HLA A*0101; assay: ITOPIA peptide binding assay; details: 1.11×10^−4M of peptide
Method: as §2, §3

HLA A*0301 [13] = target: T5, HLA A*0301; assay: ITOPIA peptide binding assay; details: 1.11×10^−4M of peptide
Method: as §2, §3

HLA B*0702 [14] = target: T6, HLA B*0702; assay: ITOPIA peptide binding assay; details: 1.11×10^−4M of peptide
Method: as §2, §3

HLA A*2402 [15] = target: T7, HLA A*2402; assay: ITOPIA peptide binding assay; details: 1.11×10^−4M of peptide
Method: as §2, §3

HLA B*1501 [16] = target: T8, HLA B*1501; assay: ITOPIA peptide binding assay; details: 1.11×10^−4M of peptide
Method: as §2, §3

HLA A*0201 [17] = target: T3, HLA A*0201; assay: ITOPIA off-rate assay; assay type: binding; details: 37° C., one-phase exponential decay
Method: as §2
The peptides initially identified as binders were evaluated for stability based on their ability to remain bound to MHC molecules at 37° C. at time points 0, 0.5, 1, 1.5, 2, 4, 6 and 8 hours. […] The values obtained for each time point (in duplicate) are expressed (Table 11) as a percentage of the positive control. To calculate the t1/2 and goodness-of-fit, as measured by r^2, for each peptide, a one-phase exponential decay curve, with a plateau given equal to 0, was generated using […] PRISM software.

Row | Substance | iScore (HLA B*0801 [1]) | iScore (HLA A*1101 [2]) | iScore (HLA A*0201 [3]) | iScore (HLA A*0101 [4]) | iScore (HLA A*0301 [5]) | iScore (HLA B*0702 [6]) | iScore (HLA A*2402 [7]) | iScore (HLA B*1501 [8]) | level of binding, percent of positive control peptide binding (HLA B*0801 [9]) | level of binding, percent of positive control peptide binding (HLA A*1101 [10]) | level of binding, percent of positive control peptide binding (HLA A*0201 [11]) | level of binding, percent of positive control peptide binding (HLA A*0101 [12]) | level of binding, percent of positive control peptide binding (HLA A*0301 [13]) | level of binding, percent of positive control peptide binding (HLA B*0702 [14]) | level of binding, percent of positive control peptide binding (HLA A*2402 [15]) | level of binding, percent of positive control peptide binding (HLA B*1501 [16]) | A*0201 t1/2 (HLA A*0201 [17])
1 | 70 (VPLTEEAEL; HIV) [compound 70] | 0 | 0 | 0 | 0 | 0 | 0 | 0 | 0 | 4% of positive control | 1% of positive control | 5% of positive control | 1% of positive control | 0% of positive control | 4% of positive control | 6% of positive control | 4% of positive control | –
2 | 155 (HNEWTLELL; HIV) [compound 155] | 0 | 0 | 0 | 0 | 0 | 0 | 0 | 0 | 3% of positive control | 1% of positive control | 5% of positive control | 0% of positive control | 0% of positive control | 1% of positive control | 13% of positive control | 0% of positive control | –
3 | ALFYKLDVV [compound 72] | 0 | 0 | 0.484 | 0 | 0 | 0 | 0 | 0 | 3% of positive control | 1% of positive control | 80% of positive control | 4% of positive control | 5% of positive control | 3% of positive control | 14% of positive control | 4% of positive control | 4.0 h
4 | VTLTEEAEL [compound 156] | 0 | 0 | 0.110 | 0 | 0 | 0 | 0 | 0 | 4% of positive control | 1% of positive control | 26% of positive control | 1% of positive control | 0% of positive control | 0% of positive control | 11% of positive control | 7% of positive control | 1.2 h

Reference: patent US20060160070A1, “Association-based epitome design” (Microsoft Corporation, priority 2004, published 2006)
